PubChem BioAssay (NCI)
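Dose response: 5 concentrations. Exposure: 48 h. Format: 96-well plates. Endpoint: linear interpolation; highest concentration if not reached. TGI is the concentration that stops growth completely.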

Experiments:
Experiment in all cases: NCI tumour cell line growth inhibition, 48 h
[1] = test system: SW-620 colon
[2] = test system: A549 NSCLC
[3] = test system: SK-MEL-28 melanoma
[4] = test system: MDA-MB-435
[5] = test system: A498 renal
[6] = test system: MCF7 breast
[7] = test system: MDA-N
[8] = test system: SK-OV-3 ovarian
[9] = test system: OVCAR-8 ovarian
[10] = test system: EKVX NSCLC
[11] = test system: HL-60(TB) leukemia
[12] = test system: HT29 colon
[13] = test system: UACC-257 melanoma
[14] = test system: MALME-3M melanoma
[15] = test system: SF-268 CNS
[16] = test system: RXF 393 renal
[17] = test system: RPMI-8226 leukemia
[18] = test system: ACHN renal
[19] = test system: PC-3 prostate
[20] = test system: OVCAR-5 ovarian
[21] = test system: K-562 leukemia
[22] = test system: HOP-62 NSCLC
[23] = test system: U251 CNS
[24] = test system: OVCAR-4 ovarian
[25] = test system: M14 melanoma
[26] = test system: NCI/ADR-RES ovarian
[27] = test system: UO-31 renal
[28] = test system: DU-145 prostate
[29] = test system: HOP-92 NSCLC
[30] = test system: NCI-H522 lung
[31] = test system: KM12 colon
[32] = test system: CAKI-1 renal
[33] = test system: LOX IMVI melanoma
[34] = test system: COLO 205 colon
[35] = test system: IGROV1 ovarian
[36] = test system: NCI-H23 lung
[37] = test system: SK-MEL-2 melanoma
[38] = test system: UACC-62 melanoma
[39] = test system: 786-0 renal
[40] = test system: SK-MEL-5 melanoma
[41] = test system: HCT-116 colon
[42] = test system: HS 578T breast
[43] = test system: T-47D breast
[44] = test system: SR leukemia
[45] = test system: HCT-15 colon
[46] = test system: NCI-H226 lung
[47] = test system: BT-549 breast
[48] = test system: SN12C renal
[49] = test system: SNB-19 CNS
[50] = test system: SF-295 CNS
[51] = test system: MOLT-4 leukemia
[52] = test system: OVCAR-3 ovarian

Measured: TGI

COP(=O)(OC)C(O)/C=C/c1ccco1 (configuration not stated)
> 100 µM: [1] | [2] | [3] | [4] | [5] | [6] | [7] | [8] | [9] | [10] | [11] | [12] | [13] | [14] | [15] | [16] | [17] | [18] | [19] | [20] | [21] | [22] | [23] | [24] | [25] | [26] | [27] | [28] | [29] | [30] | [31] | [32] | [33] | [34] | [35] | [36] | [37] | [38] | [39] | [40] | [41] | [42] | [43] | [44] | [45] | [46] | [47] | [48] | [49] | [50] | [51] | [52]
